Measurements reported in patent US5053070A, “Pyrimidine derivatives, preparation processes thereof, herbicide containing the same, and herbicidal compositions containing the same along with other active ingredient” (Mitsui Toatsu Chemicals, Incorporated, priority 1988, dated 1991).
≈ marks a conversion by molar mass, not a printed value. Each block holds one compound with its values, some of them ahead of it.

Columns and labels:
rice [1] = experiment: Treatment of soil under submerged condition, post-emergence (Test 5), injury; type: in vivo; conditions: 30 g ai/a granule, 30 days later
Procedure: (§1) 1/5000-are Wagner pots were filled with soil. Seeds or tubers of barnyardgrass, Monochoria vaginalis, bulrush, Sagittaria pygmaea, Cyperus serroylnus and Eleocharis kuroguwai were seeded or planted under submerged condition. Two pairs of rice seedlings (2-3 leaf stage), which had been reared in advance, were transplanted to each pot and were allowed to grow in a green house. Each pair consisted of two rice seedlings. When the barnyardgrass grew to two-leaf stage, each pot was treated with a granule which had been prepared by processing a predetermined amount of the test composition in accordance with a similar method to the method described in Formulation Example 9. The state of emergence of weeds and the state of injury of rice were observed 30 days later.
In the table, the degrees of damages of the test plants and the degrees of injury of the rice are shown in a similar manner to Example 2.

narrowleaf waterplantain = experiment: Petri dish test (Test 6); type: in vivo; conditions: 336 h; seeds on filter paper, 25° C., 14 days; read-out: I80 (ppm)
Procedure: A filter paper was placed in each glass-made Petri dish having a diameter of 9 cm. A compound dissolved in acetone was added in a predetermined amount. The filter paper was then dried in air to remove acetone. Seeds of narrowleaf waterplantain were placed on the filter paper and 10 ml of water were poured into the Petri dish. The seeds were allowed to grow at 25° C. in a bright room. Fourteen days later, the state of growth of narrowleaf water-plantain was observed.
In the table, the degree of damages of the test plant was determined by comparing the state of growth of the plant with that of the plant in an untreated group and is shown in accordance with the following standard: […]

redroot pigweed = experiment: Upland foliar application test (Test 3); type: in vivo; conditions: 30 g ai/a, foliar spray at 2-3 leaves, 30th day
Procedure: (§2) Resin-made 1/10000-are pots were filled with the soil of an upland field. Redroot pigweed, common lambsquarters, foxtail meadow, johnsongrass, barnyardgrass, green foxtail, large crabgrass, soybean, peanut and cotton were separately seeded and were allowed to germinate in a green house. When each plant grew to the stage of 2-3 leaves, an emulsion formulated from a predetermined amount of each test compound in a similar manner to the method described in Formulation Example 11 was diluted with water to a predetermined dilution rate and then sprayed at an application rate equal to 5 l per are onto the foliage of each plant by means of a pressure-operated ULV (ultra low volume) sprayer. Influence to the crops and weeds were observed on the 30th day after the spray of the herbicides. The results are shown in Table 4 in which the degree of damages of each test plant and the degree of injury to each crop are shown in a similar manner to Test 2.

foxtail meadow = experiment: Upland foliar application test (Test 3); type: in vivo; conditions: 30 g ai/a, foliar spray at 2-3 leaves, 30th day
Procedure: as §2

barnyardgrass = experiment: Upland foliar application test (Test 3); type: in vivo; conditions: 30 g ai/a, foliar spray at 2-3 leaves, 30th day
Procedure: as §2

common lambsquarters = experiment: Upland foliar application test (Test 3); type: in vivo; conditions: 30 g ai/a, foliar spray at 2-3 leaves, 30th day
Procedure: as §2

large crabgrass = experiment: Upland foliar application test (Test 3); type: in vivo; conditions: 30 g ai/a, foliar spray at 2-3 leaves, 30th day
Procedure: as §2

johnsongrass = experiment: Upland foliar application test (Test 3); type: in vivo; conditions: 30 g ai/a, foliar spray at 2-3 leaves, 30th day
Procedure: as §2

green foxtail = experiment: Upland foliar application test (Test 3); type: in vivo; conditions: 30 g ai/a, foliar spray at 2-3 leaves, 30th day
Procedure: as §2

rice [2] = experiment: Treatment of soil under submerged condition, pre-emergence (Test 4), injury; type: in vivo; conditions: 30 g ai/a granule, 30 days later
Procedure: as §1, with “seroylnus” for “serroylnus”, “germinate” for “grow”, “One day later (before emergence of weeds),” for “When the barnyardgrass grew to two-leaf stage,”
In the table, the degrees of damages of the test plants and the degrees of injury of rice are shown in a similar manner to Example 2.

soybean = experiment: Upland foliar application test (Test 3), crop injury; type: in vivo; conditions: 30 g ai/a, foliar spray at 2-3 leaves, 30th day
Procedure: as §2

cotton = experiment: as above; type: in vivo; conditions: 30 g ai/a, foliar spray at 2-3 leaves, 30th day
Procedure: as §2

peanut = experiment: as above; type: in vivo; conditions: 30 g ai/a, foliar spray at 2-3 leaves, 30th day
Procedure: as §2

[3] = tested on: ALS (acetolactate syntase); experiment: ALS enzyme assay (Test 1); type: biochemical, pea; conditions: 1,000 ppm (0.5 mg/0.5 ml)
Procedure: To determine the selectivity in enzyme level between crops and weeds, and ALS enzyme assay was conducted using pea as a representative of broadleaf crops and barnyardgrass as a representative of narrowleaf weeds.
After seeds of pea and barnyardgrass were allowed to germinate at 25° C. for 8-14 days in a dark place, partially-purified suspensions (Suspensions A) of acetolactate syntase were separately obtained from seedlings in accordance with the method described in the literature, Plant Physiology, 75, 827-831.
In a test tube, 0.5 mg of one of test compounds was weighed, followed by the addition of 0.15 ml of a 20 mM K2 HPO4 solution and 0.25 ml of a reaction substrate medium which consisted of 40 mM of K2 HPO4, 40 mM of sodium pyruvate, 1 mM of TPP, 1 mM of MgCl2 and 20 μM of FAD so that 0.4 ml of a reaction solution (Solution B) was prepared. Added to 0.4 ml of Solution B was 0.1 ml of suspension A. After the resultant mixture was shaken for 1 hour in a thermostat water bath controlled at 30° C., 50 μl of 6N sulfuric acid were added to terminate the reaction.
Next, the reaction-terminated liquid mixture was transferred into a thermostat water bath controlled at 60° C. and was heated for 15 minutes. Thereafter, 0.5 ml of a 0.5% creatine solution and 0.5 ml of a 5% alkaline α-naphthol solution were added, and the resultant mixture was maintained at 60° C. for 15 minutes. As a result, the test solution developed a pink-red color. After the above operation, the absorbance of the test solution at 525 nm was measured by a spectrophotometer (Absorbance 1 of Test Compound).
On the other hand, the absorbance (Absorbance 2 of Blank) of a solution obtained by subjecting a portion of Solution B, said portion being free of the test compound, to the above operation and the absorbance (Absorbance 3 of sulfuric acid terminated) of another solution obtained by subjecting another portion of Solution B, said portion containing 50 μl of 6N sulfuric acid as a test compound, were measured at the same time. Based on the values of the respective measurements, the enzyme assay at 1,000 ppm (0.5 mg/0.5 ml) of each compound was determined. [formula]

- Inhibitory activity (%) Pea [3]: 12%
SMILES: COc1cc(OC)nc(Oc2ccccc2C=NOCC=Cc2ccccc2Cl)n1 [Compound No. 27]
- Injury Rice (rice [1]): 0 (91-100 (No damages))
- IC80 (narrowleaf waterplantain): 2 µg/mL (≈ 4.7 µM)
- Herbicidal effects Redroot pigweed (redroot pigweed): 5 (0-5 (Death))
- Herbicidal effects Foxtail meadow (foxtail meadow): 5 (0-5 (Death))
- Herbicidal effects Barnyardgrass (barnyardgrass): 4 (6-10 (Severe damages))
- Herbicidal effects Common lambsquarters (common lambsquarters): 4 (6-10 (Severe damages))
- Herbicidal effects Large crabgrass (large crabgrass): 5 (0-5 (Death))
- Herbicidal effects Johnsongrass (johnsongrass): 5 (0-5 (Death))
- Herbicidal effects Green foxtail (green foxtail): 5 (0-5 (Death))
- Injury Rice (rice [2]): 0 (91-100 (No damages))
- Injury Soybean (soybean): 0 (91-100 (No damages))
- Injury Cotton (cotton): 0 (91-100 (No damages))
- Injury Peanut (peanut): 0 (91-100 (No damages))

- Inhibitory activity (%) Pea [3]: 0%
SMILES: COc1cc(OC)nc(Oc2ccccc2C=NOCc2cccc(C)c2)n1 [compound 20]
- Injury Rice (rice [1]): 0 (91-100 (No damages))
- IC80 (narrowleaf waterplantain): 100 µg/mL (≈ 264 µM)
- Herbicidal effects Redroot pigweed (redroot pigweed): 5 (0-5 (Death))
- Herbicidal effects Foxtail meadow (foxtail meadow): 5 (0-5 (Death))
- Herbicidal effects Barnyardgrass (barnyardgrass): 5 (0-5 (Death))
- Herbicidal effects Common lambsquarters (common lambsquarters): 4 (6-10 (Severe damages))
- Herbicidal effects Large crabgrass (large crabgrass): 5 (0-5 (Death))
- Herbicidal effects Johnsongrass (johnsongrass): 5 (0-5 (Death))
- Herbicidal effects Green foxtail (green foxtail): 5 (0-5 (Death))
- Injury Rice (rice [2]): 0 (91-100 (No damages))
- Injury Soybean (soybean): 0 (91-100 (No damages))
- Injury Cotton (cotton): 0 (91-100 (No damages))
- Injury Peanut (peanut): 0 (91-100 (No damages))

- Inhibitory activity (%) Pea [3]: 0%
SMILES: C#CCON=Cc1ccccc1Oc1nc(OC)cc(OC)n1 [Compound No. 13, 0-(2-propynyl)-2-(4,6-dimethoxy-2-pyrimidinyloxy)benzaldoxime]
- Injury Rice (rice [1]): 0 (91-100 (No damages))
- IC80 (narrowleaf waterplantain): 5 µg/mL (≈ 16 µM)
- Herbicidal effects Redroot pigweed (redroot pigweed): 5 (0-5 (Death))
- Herbicidal effects Foxtail meadow (foxtail meadow): 5 (0-5 (Death))
- Herbicidal effects Barnyardgrass (barnyardgrass): 5 (0-5 (Death))
- Herbicidal effects Common lambsquarters (common lambsquarters): 4 (6-10 (Severe damages))
- Herbicidal effects Large crabgrass (large crabgrass): 5 (0-5 (Death))
- Herbicidal effects Johnsongrass (johnsongrass): 5 (0-5 (Death))
- Herbicidal effects Green foxtail (green foxtail): 5 (0-5 (Death))
- Injury Rice (rice [2]): 1 (71-90 (Slight damages))
- Injury Soybean (soybean): 0 (91-100 (No damages))
- Injury Cotton (cotton): 0 (91-100 (No damages))
- Injury Peanut (peanut): 0 (91-100 (No damages))

- Inhibitory activity (%) Pea [3]: 0%
SMILES: COc1cc(OC)nc(Oc2ccccc2C=NOCC=Cc2ccccc2C)n1 [Compound No. 39]
- Injury Rice (rice [1]): 0 (91-100 (No damages))
- IC80 (narrowleaf waterplantain): 2 µg/mL (≈ 4.93 µM)
- Herbicidal effects Redroot pigweed (redroot pigweed): 5 (0-5 (Death))
- Herbicidal effects Foxtail meadow (foxtail meadow): 5 (0-5 (Death))
- Herbicidal effects Barnyardgrass (barnyardgrass): 5 (0-5 (Death))
- Herbicidal effects Common lambsquarters (common lambsquarters): 4 (6-10 (Severe damages))
- Herbicidal effects Large crabgrass (large crabgrass): 5 (0-5 (Death))
- Herbicidal effects Johnsongrass (johnsongrass): 5 (0-5 (Death))
- Herbicidal effects Green foxtail (green foxtail): 5 (0-5 (Death))
- Injury Rice (rice [2]): 1 (71-90 (Slight damages))
- Injury Soybean (soybean): 0 (91-100 (No damages))
- Injury Cotton (cotton): 0 (91-100 (No damages))
- Injury Peanut (peanut): 0 (91-100 (No damages))

- Inhibitory activity (%) Pea [3]: 0%
SMILES: COc1cc(OC)nc(Oc2ccccc2C=NOCc2ccc(Cl)cc2Cl)n1 [Compound No. 17]
- Injury Rice (rice [1]): 0 (91-100 (No damages))
- IC80 (narrowleaf waterplantain): 100 µg/mL (≈ 230 µM)
- Herbicidal effects Redroot pigweed (redroot pigweed): 4 (6-10 (Severe damages))
- Herbicidal effects Foxtail meadow (foxtail meadow): 3 (11-40 (Medium damages))
- Herbicidal effects Barnyardgrass (barnyardgrass): 3 (11-40 (Medium damages))
- Herbicidal effects Common lambsquarters (common lambsquarters): 4 (6-10 (Severe damages))
- Herbicidal effects Large crabgrass (large crabgrass): 3 (11-40 (Medium damages))
- Herbicidal effects Johnsongrass (johnsongrass): 5 (0-5 (Death))
- Herbicidal effects Green foxtail (green foxtail): 5 (0-5 (Death))
- Injury Rice (rice [2]): 0 (91-100 (No damages))
- Injury Soybean (soybean): 0 (91-100 (No damages))
- Injury Cotton (cotton): 0 (91-100 (No damages))
- Injury Peanut (peanut): 0 (91-100 (No damages))

- Inhibitory activity (%) Pea [3]: 0%
SMILES: COc1cc(OC)nc(Oc2ccccc2C=NOCc2ccccc2Cl)n1 [compound 16]
- Injury Rice (rice [1]): 0 (91-100 (No damages))
- IC80 (narrowleaf waterplantain): 100 µg/mL (≈ 250 µM)
- Herbicidal effects Redroot pigweed (redroot pigweed): 4 (6-10 (Severe damages))
- Herbicidal effects Foxtail meadow (foxtail meadow): 3 (11-40 (Medium damages))
- Herbicidal effects Barnyardgrass (barnyardgrass): 3 (11-40 (Medium damages))
- Herbicidal effects Common lambsquarters (common lambsquarters): 3 (11-40 (Medium damages))
- Herbicidal effects Large crabgrass (large crabgrass): 3 (11-40 (Medium damages))
- Herbicidal effects Johnsongrass (johnsongrass): 5 (0-5 (Death))
- Herbicidal effects Green foxtail (green foxtail): 5 (0-5 (Death))
- Injury Rice (rice [2]): 0 (91-100 (No damages))
- Injury Soybean (soybean): 0 (91-100 (No damages))
- Injury Cotton (cotton): 0 (91-100 (No damages))
- Injury Peanut (peanut): 0 (91-100 (No damages))

- Inhibitory activity (%) Pea [3]: 0%
SMILES: CC#CCON=Cc1ccccc1Oc1nc(OC)cc(OC)n1 [compound 10]
- Injury Rice (rice [1]): 1 (71-90 (Slight damages))
- IC80 (narrowleaf waterplantain): 17 µg/mL (≈ 51.9 µM)
- Herbicidal effects Redroot pigweed (redroot pigweed): 5 (0-5 (Death))
- Herbicidal effects Foxtail meadow (foxtail meadow): 4 (6-10 (Severe damages))
- Herbicidal effects Barnyardgrass (barnyardgrass): 5 (0-5 (Death))
- Herbicidal effects Common lambsquarters (common lambsquarters): 4 (6-10 (Severe damages))
- Herbicidal effects Large crabgrass (large crabgrass): 5 (0-5 (Death))
- Herbicidal effects Johnsongrass (johnsongrass): 5 (0-5 (Death))
- Herbicidal effects Green foxtail (green foxtail): 4 (6-10 (Severe damages))
- Injury Rice (rice [2]): 1 (71-90 (Slight damages))
- Injury Soybean (soybean): 0 (91-100 (No damages))
- Injury Cotton (cotton): 0 (91-100 (No damages))
- Injury Peanut (peanut): 0 (91-100 (No damages))
